From patent US6190849A, “Photographic element containing ballasted tetrazole derivative and inhibitor releasing coupler” (priority 1999, dated 2001)

How the values were obtained:
[1] = Interimage in bilayer format: IDIR-2 in blue layer, IEM in green layer; settings: for Cg /Cb+g (interimage): IEM or CIEM in green layer at 7.2×10^-3 mmol/m^2, higher ratio = more interimage, no-IEM check; for Relative Speed (green layer): IEM or CIEM in green layer, speed point +0.15 density above Dmin, normalized to check
Experimental: Bilayer photographic elements were prepared by coating the following layers on a cellulose triacetate film support (coverages are in g/m^2). Unless otherwise noted, all comparative and inventive compounds were dispersed in twice their own weight of N,N-dibutyllauramide: […] Layer 3 (Interlayer): gelatin at 0.64, ILS-1 at 0.11 and FD-1 at 0.11. […] Layer 5 (Overcoat): gelatin at 2.79 and 0.02 bis-vinylsulfonemethylether. […] Contrast of the elements was determined using the maximum slope between any two density points. In this test, the ratio of the contrast of the green only exposure to the contrast of the green of a blue and green exposure (Cg /Cb+g) is a measure of the interimage. A higher ratio means more inhibition originating from the blue and affecting the green record. Relative speed of the green layer was determined by measuring the speed point +0.15 density units above Dmin and normalizing to the check position.

[2] = Contrast (gamma) reduction by DI(A)R in single layer film element, C-41 process; settings: DIR at 0.055 mmol/m^2, relative to non-inhibitor containing check; KODAK FLEXICOLOR (C-41)
Text: The mild inhibitor fragments that are used in this invention are defined as those that cause less than a 45% gamma reduction, or more preferably less than a 40% gamma reduction, relative to a non-inhibitor containing check when coated as the following single layer film element on a cellulose triacetate film support (coverages are in g/m^2): […]
Overcoat Gelatin at 2.79 and 0.02 bis-vinylsulfonemethylether
Imaging Layer Gelatin at 2.79
Magenta Image Coupler M-1 (dispersed at 80% by
weight in tricresyl phosphate and 20% by weight
N,N-dibutyl-2-butoxy-5-t-octylaniline) at 0.692
DIR being tested at 0.055 mmol/m^2 (dispersed in twice
its weight in N,N-dibutyllauramide)
Green sensitized AgBrI at 1.08
Samples of each element were given a stepped exposure and processed in the KODAK FLEXICOLOR (C-41) process as described in British Journal of Photography Annual, 1988, pp 196-198. Contrast of the elements was determined using the maximum slope between any two density points.

SMILES | Cg /Cb+g (interimage) [1] | Relative Speed (green layer) [1] | % Contrast Reduction [2]
CCn1nn[nH]c1=S [CIEM-5] | 1.23 | 1.00 | –
CCCCCCCCOC(=O)CSCCn1nn[nH]c1=S [IEM-6] | 1.31 | 0.99 | –
CCCCCCCCCCCCCCCCS(=O)(=O)Nc1cc(CSc2nnnn2CC(=O)OCCC)ccc1Oc1cc(C(N)=O)c(O)c2ccccc12 [IDIR-1] | – | – | -34.5%
CCCCCCCCCCCCCCOc1ccccc1NC(=O)c1cc(Oc2ccc(CSc3nnnn3-c3ccccc3)cc2[N+](=O)[O-])c2ccccc2c1O [CDIR-4] | – | – | -77.1%
CCCCCCCCCCCCOc1ccc(C)cc1NC(=O)c1cc(Oc2ccc(CSc3nnnn3CC(=O)OCCC)cc2[N+](=O)[O-])c2ccccc2c1O [IDIR-3] | – | – | -24.5%
CCCCCCCCCCC(=O)Nc1cccc(-n2nn[nH]c2=S)c1 [IEM-11] | 1.29 | 0.99 | –
O=C(O)Cn1nn[nH]c1=S [CIEM-3] | 1.23 | 0.99 | –
CCCCCCCCCCCCCCCCS(=O)(=O)Nc1ccc(Cl)c(NC(=O)C(C(=O)C(C)(C)C)n2nc(C)c(C(=O)OCCCCCC)n2)c1 (stereo not shown) [CDIR-10] | – | – | -53.8%
CCCCCCCCCCCCCCOc1ccccc1NC(=O)c1cc(Sc2nnnn2-c2ccccc2)c2ccccc2c1O [CDIR-6] | – | – | -75.4%
CCCCCCCCCCC(Oc1ccc(S(=O)(=O)c2ccc(O)cc2)cc1)C(=O)Nc1ccc(N2N=C(C)C(n3nc(C)c(C(=O)OCCCCCC)n3)C2=O)cc1 (stereo not shown) [CDIR-9] | – | – | -50.1%
CCCCCCCCCCCCCCOc1ccccc1NC(=O)c1cc(Oc2ccc([N+](=O)[O-])cc2CN(C(=O)Sc2nnnn2-c2ccccc2)C(C)C)c2ccccc2c1O [CDIR-3] | – | – | -75.7%
CCCCCCCC(=O)Nc1cccc(-n2nn[nH]c2=S)c1 [IEM-10] | 1.96 | 0.91 | –
CCCCCCCCCCCCCCCCS(=O)(=O)Nc1ccc(Cl)c(NC(=O)C(Oc2ccc([N+](=O)[O-])cc2CN(CC)C(=O)Sc2nnnn2-c2ccccc2)C(=O)C(C)(C)C)c1 (stereo not shown) [CDIR-7] | – | – | -63.9%
CCCCCCCCCCCCCCCCS(=O)(=O)Nc1ccc(Cl)c(NC(=O)C(C(=O)C(C)(C)C)n2ncc(SCC(=O)OCCCCCC)n2)c1 (stereo not shown) [CDIR-11] | – | – | -58.6%
CCCCCCOC(=O)c1nn(C2C(=O)N(c3ccc(NC(=O)C(CC)Oc4ccc(C(C)(C)CC)cc4C(C)(C)CC)cc3)N=C2C)nc1C (stereo not shown) [CDIR-8] | – | – | -49.2%
CCCCCCCCCCCCCCCCS(=O)(=O)Nc1ccc(Cl)c(NC(=O)C(Oc2ccc([N+](=O)[O-])cc2CN(CC)C(=O)Sc2nnnn2CC(=O)OCCC)C(=O)C(C)(C)C)c1 (stereo not shown) [IDIR-2] | – | – | -25.3%
CSCC(CSC)OC(=O)CCn1nn[nH]c1=S [CIEM-7] | 1.45 | 0.90 | –
CCC(C)OC(=O)C(CCSC)n1nn[nH]c1=S (stereo not shown) [CIEM-6] | 1.72 | 0.90 | –
CCCCOC(=O)CSCCn1nn[nH]c1=S [IEM-7] | 1.75 | 0.95 | –
CCCCCC(=O)Nc1cccc(-n2nn[nH]c2=S)c1 [IEM-9] | 2.20 | 0.91 | –
CCCCCCCCCOC(=O)C(CCSC)n1nn[nH]c1=S (stereo not shown) [IEM-5] | 1.39 | 0.96 | –
CSCC(=O)Nc1cccc(-n2nn[nH]c2=S)c1 [CIEM-8] | 1.47 | 0.92 | –
CCn1nn[nH]c1=S [CIEM-4] | 1.22 | 1.00 | –
O=C(O)c1ccc(-n2nn[nH]c2=S)cc1 [CIEM-9] | 1.21 | 1.00 | –
S=c1[nH]nnn1-c1ccccc1 [CIEM-2] | 1.44 | 0.91 | –
CCCCCCCOC(=O)C(CCC)n1nn[nH]c1=S (stereo not shown) [IEM-8] | 2.02 | 0.91 | –
O=C(CSCCn1nn[nH]c1=S)OC1CCCCC1 [IEM-3] | 1.85 | 0.91 | –
